Experimental data as given in ChEMBL document CHEMBL1201862, “PubChem BioAssay data set” (2004).
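Five compound concentrations were applied to cells in 96-well plates for 48 hours; endpoints were derived by simple linear interpolation of the resulting dose-response curve. The concentration for 50% growth inhibition is given as GI50.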 Active and inactive are the calls of the source. Cut-off read from the data, not from the text of the source: active = GI50 up to about 1.1 µM and inactive = higher.

Tests used:
Experiment in all cases: NCI tumour cell line growth inhibition, 48 h
[1] = system: SN12C
[2] = system: SNB-78
[3] = system: SW-620
[4] = system: 786-0
[5] = system: SK-MEL-5
[6] = system: Malme-3M
[7] = system: UACC-62
[8] = system: SR
[9] = system: LXFL 529
[10] = system: CCRF-CEM
[11] = system: NCI-H226
[12] = system: M14
[13] = system: HCT-15
[14] = system: UACC-257
[15] = system: SNB-19
[16] = system: A498
[17] = system: OVCAR-4
[18] = system: MDA-MB-231
[19] = system: Hs-578T

SMILES	GI50 [1]	GI50 [2]	GI50 [3]	GI50 [4]	GI50 [5]	GI50 [6]	GI50 [7]	GI50 [8]	GI50 [9]	GI50 [10]	GI50 [11]	GI50 [12]	GI50 [13] [µM]	GI50 [14]	GI50 [15]	GI50 [16]	GI50 [17]	GI50 [18]	GI50 [19]
CCOC(=O)C1=C(C)NC2=C(C(=O)N(c3ccccc3)C2c2ccccc2)C1c1ccccc1 (configuration not stated)	17.9 µM (inactive)	19.4 µM (inactive)	19.8 µM (inactive)	18.9 µM (inactive)	15.1 µM (inactive)	17.9 µM (inactive)	12.6 µM (inactive)	16.9 µM (inactive)	16 µM (inactive)	21.2 µM (inactive)	19.9 µM (inactive)	16.7 µM (inactive)	16	18.2 µM (inactive)	–	–	–	–	–
O=[N+]([O-])C1C2C=CC(C2)[C@H]1c1ccco1 (some centres not stated)	> 100 µM (inactive)	> 100 µM (inactive)	> 100 µM (inactive)	> 100 µM (inactive)	> 100 µM (inactive)	> 100 µM (inactive)	> 100 µM (inactive)	> 100 µM (inactive)	> 100 µM (inactive)	> 100 µM (inactive)	> 100 µM (inactive)	> 100 µM (inactive)	> 100	> 100 µM (inactive)	> 100 µM (inactive)	> 100 µM (inactive)	> 100 µM (inactive)	–	–
CC1OC(OCC2COC(O)(Oc3c(-c4ccc(O)c(O)c4)oc4cc(O)cc(O)c4c3=O)C(O)C2O)C(O)C(O)C1O (configuration not stated)	> 100 µM (inactive)	> 100 µM (inactive)	> 100 µM (inactive)	> 100 µM (inactive)	> 100 µM (inactive)	> 100 µM (inactive)	> 100 µM (inactive)	> 100 µM (inactive)	> 100 µM (inactive)	> 100 µM (inactive)	> 100 µM (inactive)	> 100 µM (inactive)	> 100	> 100 µM (inactive)	> 100 µM (inactive)	> 100 µM (inactive)	> 100 µM (inactive)	–	–
Cc1cc(Br)ccc1/N=N/C1C(=O)ON=C1c1ccccc1 (configuration not stated)	> 100 µM (inactive)	> 100 µM (inactive)	> 100 µM (inactive)	> 100 µM (inactive)	53.5 µM (inactive)	> 100 µM (inactive)	> 100 µM (inactive)	48 µM (inactive)	69.5 µM (inactive)	–	> 100 µM (inactive)	> 100 µM (inactive)	–	> 100 µM (inactive)	> 100 µM (inactive)	35 µM (inactive)	> 100 µM (inactive)	–	–
CS(=O)(=O)C1(Br)S(=O)(=O)OCCOS1(=O)=O	> 100 µM (inactive)	> 100 µM (inactive)	> 100 µM (inactive)	> 100 µM (inactive)	> 100 µM (inactive)	> 100 µM (inactive)	> 100 µM (inactive)	> 100 µM (inactive)	> 100 µM (inactive)	> 100 µM (inactive)	> 100 µM (inactive)	> 100 µM (inactive)	> 100	> 100 µM (inactive)	> 100 µM (inactive)	> 100 µM (inactive)	> 100 µM (inactive)	–	–
Cc1cc(O)nc(NN2C(Cl)C(=O)C2c2ccc(O)cc2)n1 (configuration not stated)	11.2 µM (inactive)	5.87 µM (inactive)	5.21 µM (inactive)	5.14 µM (inactive)	8.49 µM (inactive)	14.4 µM (inactive)	5.04 µM (inactive)	3.08 µM (inactive)	10.3 µM (inactive)	2.81 µM (inactive)	10.5 µM (inactive)	11.4 µM (inactive)	4.31	13.1 µM (inactive)	11 µM (inactive)	9.75 µM (inactive)	6.95 µM (inactive)	14 µM (inactive)	14.5 µM (inactive)
c1ccc(COc2ccc3[nH]c4c5c6ccccc6nc-5c[nH]c4c3c2)cc1	15.4 µM (inactive)	20.9 µM (inactive)	17.3 µM (inactive)	6.46 µM (inactive)	15.7 µM (inactive)	13.5 µM (inactive)	19.6 µM (inactive)	8.95 µM (inactive)	16 µM (inactive)	11.4 µM (inactive)	15.4 µM (inactive)	13.7 µM (inactive)	4.3	18 µM (inactive)	17.7 µM (inactive)	21.6 µM (inactive)	–	–	–
COc1ccc(-c2oc(/C=N/c3ccccc3)c([N+](=O)[O-])c2-c2ccc(OC)c(OC)c2)cc1OC	> 100 µM (inactive)	> 100 µM (inactive)	> 100 µM (inactive)	> 100 µM (inactive)	> 100 µM (inactive)	> 100 µM (inactive)	> 100 µM (inactive)	> 100 µM (inactive)	> 100 µM (inactive)	–	> 100 µM (inactive)	> 100 µM (inactive)	> 100	> 100 µM (inactive)	> 100 µM (inactive)	–	> 100 µM (inactive)	–	–
COC(=O)C1Cc2c([nH]c3ccccc23)[C@H](CC(C)C)N1 (some centres not stated)	> 100 µM (inactive)	> 100 µM (inactive)	> 100 µM (inactive)	> 100 µM (inactive)	–	> 100 µM (inactive)	> 100 µM (inactive)	> 100 µM (inactive)	> 100 µM (inactive)	> 100 µM (inactive)	> 100 µM (inactive)	> 100 µM (inactive)	–	> 100 µM (inactive)	> 100 µM (inactive)	> 100 µM (inactive)	–	–	–
CC1=NN(c2ccccc2)C(=O)C1C(=O)C(=O)Nc1ccc(C)cc1C (configuration not stated)	> 100 µM (inactive)	> 100 µM (inactive)	> 100 µM (inactive)	> 100 µM (inactive)	> 100 µM (inactive)	> 100 µM (inactive)	> 100 µM (inactive)	> 100 µM (inactive)	> 100 µM (inactive)	> 100 µM (inactive)	> 100 µM (inactive)	> 100 µM (inactive)	> 100	> 100 µM (inactive)	> 100 µM (inactive)	> 100 µM (inactive)	> 100 µM (inactive)	–	> 100 µM (inactive)
OCCNCO	> 100 µM (inactive)	> 100 µM (inactive)	> 100 µM (inactive)	> 100 µM (inactive)	> 100 µM (inactive)	–	> 100 µM (inactive)	> 100 µM (inactive)	> 100 µM (inactive)	> 100 µM (inactive)	> 100 µM (inactive)	> 100 µM (inactive)	> 100	> 100 µM (inactive)	> 100 µM (inactive)	> 100 µM (inactive)	> 100 µM (inactive)	–	–
COC(=O)C(/C(=N/NC(N)=O)C(=O)Nc1c(C)cccc1C(C)(C)C)c1nc2ccc(Cl)cc2nc1O (configuration not stated)	> 100 µM (inactive)	> 100 µM (inactive)	> 100 µM (inactive)	> 100 µM (inactive)	> 100 µM (inactive)	> 100 µM (inactive)	> 100 µM (inactive)	37.5 µM (inactive)	> 100 µM (inactive)	> 100 µM (inactive)	> 100 µM (inactive)	> 100 µM (inactive)	> 100	> 100 µM (inactive)	> 100 µM (inactive)	> 100 µM (inactive)	> 100 µM (inactive)	–	–
N#CC(C#N)=C(N)/C(C#N)=C\c1ccnc2ccccc12	18.8 µM (inactive)	27.1 µM (inactive)	3.49 µM (inactive)	18.9 µM (inactive)	14.6 µM (inactive)	24.8 µM (inactive)	18.9 µM (inactive)	16.4 µM (inactive)	17.2 µM (inactive)	3.21 µM (inactive)	–	23 µM (inactive)	–	24.3 µM (inactive)	31.8 µM (inactive)	–	72.6 µM (inactive)	–	–
CCCCc1c2c(nc3c1CCC/C3=C\c1ccccc1)C(=O)CCC2	19.6 µM (inactive)	19.6 µM (inactive)	22 µM (inactive)	25.2 µM (inactive)	16.3 µM (inactive)	26 µM (inactive)	22.6 µM (inactive)	7.24 µM (inactive)	35.6 µM (inactive)	17.4 µM (inactive)	18.4 µM (inactive)	21.1 µM (inactive)	21.8	17 µM (inactive)	20.1 µM (inactive)	19.4 µM (inactive)	28.4 µM (inactive)	–	–
CCC(=O)C(C(=O)CC)c1c(OC(=O)c2ccccc2)ccc(O)c1C(=O)OC	> 100 µM (inactive)	> 100 µM (inactive)	> 100 µM (inactive)	> 100 µM (inactive)	> 100 µM (inactive)	–	> 100 µM (inactive)	89.9 µM (inactive)	> 100 µM (inactive)	> 100 µM (inactive)	> 100 µM (inactive)	> 100 µM (inactive)	> 100	> 100 µM (inactive)	> 100 µM (inactive)	> 100 µM (inactive)	> 100 µM (inactive)	–	–
